For the test, the target named is T1, KRAS G12C 1-169, his-tagged protein, GDP-loaded (Homo sapiens, UniProt P01116, G12C).
T1 construct: KRAS G12C 1-169, his-tagged protein, GDP-loaded
Nature of the test: Biochemical assay: covalent binding (modification %) to KRAS G12C by mass spectrometry. Conditions: 2 hour incubation period, 8 μM compound (compounds 21-92). The procedure: Test compounds were prepared as 10 mM stock solutions in DMSO (Fisher cat# BP-231-100). KRAS G12C 1-169, his-tagged protein, GDP-loaded was diluted to 2 μM or 0.5 μM in buffer (20 mM Hepes, 150 mM NaCl, 1 mM MgCl2). Compounds were tested for activity as follows:
Compounds were diluted to 50× final test concentration in DMSO in 96-well storage plates. Compound stock solutions were vortexed before use and observed carefully for any sign of precipitation. Dilutions were as follow: • For 100 μM final compound concentration, compounds were diluted to 5000 μM (5 μL 10 mM compound stock+5 μL DMSO and mixed well by pipetting. • For 30 μM final compound concentration, compounds were diluted to 1500 μM (3 μL 10 mM compound stock+17 μL DMSO) and mixed well by pipetting. • For 10 μM final compound concentration, compounds were diluted to 500 μM (2 μL 10 mM compound stock+38 μL DMSO) and mixed well by pipetting. 49 μL of the stock protein solution was added to each well of a 96-well PCR plate (Fisher cat#1423027). 1 μl of the diluted 50× compounds were added to appropriate wells in the PCR plate using 12-channel pipettor. Reactions were mixed carefully and thoroughly by pipetting up/down with a 200 μL multi-channel pipettor. The plate was sealed well with aluminum plate seal, and stored in drawer at room temperature for 10 minutes, 30 minutes, 2 hours or 24 hours. 5 μL of 2% formic acid (Fisher cat# A117) in de-ionized H2O was then added to each well followed by mixing with a pipette. The plate was then resealed with aluminum seal and stored on dry ice until analyzed as described below.
The above described assays were analyzed by mass spectrometry according to one of the following two procedures:
The MS instrument is set to positive polarity, 2 GHz resolution, and low mass (1700) mode and allowed to equilibrate for 30 minutes. The instrument is then calibrated, switched to acquisition mode and the appropriate method loaded.
After another 30 minute equilibration time, a blank batch (i.e., buffer) is run to ensure equipment is operating properly. The samples are thawed at 37° C. for 10 minutes, briefly centrifuged, and transfer to the bench top. Wells A1 and H12 are spiked with 1 μL 500 μM internal standard peptide, and the plates centrifuged at 2000×g for 5 minutes. The method is then run and masses of each individual well recorded.
The masses (for which integration data is desired) for each well are pasted into the platemap and exported from the analysis. Masses for the internal standards are exported as well. The data at 50 ppm is extracted for the +19 charge state, and identity of well A1 is assigned using the internal standard spike and integrated. Peak data is exported as a TOF list and the above steps are repeated individually, for the +20, 21, 22, 23, 24, and 25 charge states.
The masses and peak intensities of KRAS G12C protein species were measured using a Dionex RSLCnano system (Thermo Scientific) connected to a Q Exactive Plus mass spectrometer (Thermo Scientific).
[…] of sample was each loaded onto a Aeris™ 3.6 μm WIDEPORE C4 200 Å, LC Column 50×2.1 mm column maintained at 40° C. at a flow rate of 600 μL/min with 20% Solvent A (0.1% formic acid in H2O) and 80% Solvent B (0.1% formic acid in acetonitrile). The liquid chromatography conditions were 20% solvent B for 1 minute, 20% to 60% solvent B for 1.5 minutes, 60% to 90% solvent for 0.5 minute, 90% solvent B for 0.2 minute, 90% to 20% solvent B for 0.2 minute, and then equilibrated for 1.6 minute before the following sample injection. The flow rate was maintained at 600 μL/min throughout the sample analysis.
The mass spectrometer was operated in profile mode at a resolution of 17500, 5 microscans, using 50 msec max injection time and an AGC target of 1×10^6, and a full mass range from 800-1850 m/z was recorded. The HCD trapping gas was optimized for maximum sensitivity for intact proteins. […]
For `C=CC(=O)N1CC(N2Cc3c(F)cc(-c4cc(O)ccc4Cl)cc3C2=O)C1` [Compound 26, 2-(1-acryloylazetidin-3-yl)-6-(2-chloro-5-hydroxyphenyl)-4-fluoroisoindolin-1-one], the Binding % result was “++ (++ indicates binding activity from 10 to 50%)”.
Take `C=CC(=O)N1CC(N2Cc3c(F)cc(-c4cc(O)cc5ccccc45)cc3C2=O)C1` [Compound 27, 2-(1-acryloylazetidin-3-yl)-4-fluoro-6-(3-hydroxynaphthalen-1-yl)isoindolin-1-one]: the Binding % result is recorded as “+++ (+++ indicates binding activity greater than 50%)”.
For the compound `C=CC(=O)N1CC(N2Cc3c(cc(-c4cc(O)cc5ccccc45)cc3C(F)(F)F)C2=O)C1` [Compound 28, 2-(1-acryloylazetidin-3-yl)-6-(3-hydroxynaphthalen-1-yl)-4-(trifluoromethyl)isoindolin-1-one], the Binding % entry is on record as “++ (++ indicates binding activity from 10 to 50%)”.
`C=CC(=O)N1CC(N2Cc3cc(C)c(-c4cc(O)ccc4Cl)cc3C2=O)C1` [Compound 29, 2-(1-acryloylazetidin-3-yl)-6-(2-chloro-5-hydroxyphenyl)-5-methylisoindolin-1-one]: the Binding % result is on record as “++ (++ indicates binding activity from 10 to 50%)”.
As to `C=CC(=O)N1CC(N2Cc3cc(C)c(-c4cc(O)cc5ccccc45)cc3C2=O)C1` [Compound 30, 2-(1-acryloylazetidin-3-yl)-6-(3-hydroxynaphthalen-1-yl)-5-methylisoindolin-1-one], the Binding % entry is reported as “+++ (+++ indicates binding activity greater than 50%)”.
Turning to `C=CC(=O)N1CC(N2CCc3ccc(-c4cc(O)cc5ccccc45)cc3CC2)C1` [Compound 31, 1-(3-(7-(3-hydroxynaphthalen-1-yl)-4,5-dihydro-1H-benzo[d]azepin-3(2H)-yl)azetidin-1-yl)prop-2-en-1-one], the Binding % result is reported as “+ (+ indicates binding activity up to 10%)”.
For `C=CC(=O)N1CC(N2C(=O)c3ccc(-c4c(C)ccc5[nH]ncc45)cc3C2=O)C1` [Compound 32, 2-(1-acryloylazetidin-3-yl)-5-(5-methyl-1H-indazol-4-yl)isoindoline-1,3-dione], the Binding % entry is on record as “+ (+ indicates binding activity up to 10%)”.
For the compound `C=CC(=O)N1CC(N2Cc3ccc(-c4cc(O)cc(F)c4)cc3C2=O)C1` [Compound 33, 2-(1-acryloylazetidin-3-yl)-6-(3-fluoro-5-hydroxyphenyl)isoindolin-1-one], the Binding % result was “+ (+ indicates binding activity up to 10%)”.
Next, `C=CC(=O)N1CC(N2Cc3sc(-c4cc(O)cc5ccccc45)cc3C2=O)C1` [Compound 34, 5-(1-acryloylazetidin-3-yl)-2-(3-hydroxynaphthalen-1-yl)-5,6-dihydro-4H-thieno[2,3-c]pyrrol-4-one]: “+++ (+++ indicates binding activity greater than 50%)”.
In the case of `C=CC(=O)N1CC(N2CCc3ccc(-c4cc(O)cc5ccccc45)cc3C2=O)C1` [Compound 35, 2-(1-acryloylazetidin-3-yl)-7-(3-hydroxynaphthalen-1-yl)-3,4-dihydroisoquinolin-1(2H)-one], the Binding % entry is “+++ (+++ indicates binding activity greater than 50%)”.
Turning to `C=CC(=O)N1CC(N2CCc3ccc(-c4c(C)ccc5[nH]ncc45)cc3C2=O)C1` [Compound 36, 2-(1-acryloylazetidin-3-yl)-7-(5-methyl-1H-indazol-4-yl)-3,4-dihydroisoquinolin-1(2H)-one], the Binding % result is “+ (+ indicates binding activity up to 10%)”.
As to `C=CC(=O)N1CC(N2CCc3ccc(-c4c(C)ccc5[nH]ncc45)cc3CC2)C1` [Compound 37, 1-(3-(7-(5-methyl-1H-indazol-4-yl)-4,5-dihydro-1H-benzo[d]azepin-3(2H)-yl)azetidin-1-yl)prop-2-en-1-one], the Binding % result is “+ (+ indicates binding activity up to 10%)”.
In the case of `C=CC(=O)N1CC(N2Cc3ccc(-c4c(C)ccc5[nH]ncc45)cc3CC2=O)C1` [Compound 38, 2-(1-acryloylazetidin-3-yl)-6-(5-methyl-1H-indazol-4-yl)-1,2-dihydroisoquinolin-3(4H)-one], the Binding % result is on record as “++ (++ indicates binding activity from 10 to 50%)”.
On to `C=CC(=O)N1CC(N2Cc3ccc(-c4c(C)ccc5cn[nH]c45)cc3CC2=O)C1` [Compound 39, 2-(1-acryloylazetidin-3-yl)-6-(6-methyl-1H-indazol-7-yl)-1,2-dihydroisoquinolin-3(4H)-one], for which the Binding % result is “++ (++ indicates binding activity from 10 to 50%)”.
As for `C=CC(=O)N1CC(N2Cc3ccc(-c4cc(O)ccc4Cl)cc3CC2=O)C1` [Compound 40, 2-(1-acryloylazetidin-3-yl)-6-(2-chloro-5-hydroxyphenyl)-1,2-dihydroisoquinolin-3(4H)-one], the Binding % result was “+++ (+++ indicates binding activity greater than 50%)”.
As to `C=CC(=O)N1CC(N2Cc3ccc(-c4c(O)cccc4F)cc3CC2=O)C1` [Compound 41, 2-(1-acryloylazetidin-3-yl)-6-(2-fluoro-6-hydroxyphenyl)-1,2-dihydroisoquinolin-3(4H)-one], the Binding % entry is listed as “++ (++ indicates binding activity from 10 to 50%)”.
Turning to `C=CC(=O)N1CC(N2Cc3sc(-c4c(C)ccc5[nH]ncc45)cc3C2=O)C1` [Compound 42, 5-(1-acryloylazetidin-3-yl)-2-(5-methyl-1H-indazol-4-yl)-5,6-dihydro-4H-thieno[2,3-c]pyrrol-4-one], the Binding % result is listed as “++ (++ indicates binding activity from 10 to 50%)”.
Regarding `C=CC(=O)N1CC(N2Cc3c(O)cc(-c4cc(O)cc5ccccc45)cc3C2=O)C1` [Compound 43, 2-(1-acryloylazetidin-3-yl)-4-hydroxy-6-(3-hydroxynaphthalen-1-yl)isoindolin-1-one], the Binding % entry was “+++ (+++ indicates binding activity greater than 50%)”.
As to `C=CC(=O)N1CC(N2Cc3c(O)cc(-c4c(C)ccc5[nH]ncc45)cc3C2=O)C1` [Compound 44, 2-(1-acryloylazetidin-3-yl)-4-hydroxy-6-(5-methyl-1H-indazol-4-yl)isoindolin-1-one], the Binding % entry is “++ (++ indicates binding activity from 10 to 50%)”.
As for `C=CC(=O)N1CC(N2Cc3ccc(Oc4ccccc4)cc3C2=O)C1` [Compound 45, 2-(1-acryloylazetidin-3-yl)-6-phenoxyisoindolin-1-one], the Binding % entry is given as “+ (+ indicates binding activity up to 10%)”.
As for `C=CC(=O)N1CC(N2Cc3ccc(-c4cccc5[nH]cnc45)cc3C2=O)C1` [Compound 46, 2-(1-acryloylazetidin-3-yl)-6-(1H-benzo[d]imidazol-4-yl)isoindolin-1-one], the entry is “+ (+ indicates binding activity up to 10%)”; as for `C=CC(=O)N1CC(N2Cc3ccc(-c4ccccc4C(N)=O)cc3C2=O)C1` [Compound 47, 2-(2-(1-acryloylazetidin-3-yl)-3-oxoisoindolin-5-yl)benzamide], “+ (+ indicates binding activity up to 10%)”.
In the case of `C=CC(=O)N1CC(N2Cc3ccc(-c4cccc5[nH]ncc45)cc3C2=O)C1` [Compound 48, 2-(1-acryloylazetidin-3-yl)-6-(1H-indazol-4-yl)isoindolin-1-one], the Binding % entry is listed as “+ (+ indicates binding activity up to 10%)”.
Consider `C=CC(=O)N1CC(N2Cc3ccc(-c4cc(O)cc(Cl)c4)cc3C2=O)C1` [Compound 49, 2-(1-acryloylazetidin-3-yl)-6-(3-chloro-5-hydroxyphenyl)isoindolin-1-one], for which the Binding % entry was “++ (++ indicates binding activity from 10 to 50%)”.

Source of the values: patent US10377743B2, “Inhibitors of RAS and methods of use thereof” (Araxes Pharma LLC, priority 2016, dated 2019).
